Holding throughout (assay type): in vivo
Series [1] relates to C. elegans. The series can be described thus: Visual scoring of C. elegans after overnight incubation with compound in 24 well plate. Conditions: for visual scoring of well clearance: L3/L4-stage N2 animals. The method, then: (§1) One 24 well microtiter plate was set up and incubated overnight on the shaker at 20 C. Each well on the plate was set up with 600 L3/L4-stage N2 animals in NGM with a 1:20 dilution of concentrated HB101 E. coli (food source) in a volume of 300 μl. Before the animal/HB101 solution was added, test compounds were pipetted into wells. For water controls and compound stocks/dilutions in water (DHLA, NAC) 6 μl was added to each well (1:50 dilutions). For DMSO controls and compound stocks/dilutions in DMSO (LA) 3 μl was added to each well (1:100 dilutions). No OD620 measurements were taken but the animals were visually scored after 19 h incubation.
One 24 well microtiter plate was set up and incubated overnight on the shaker at 20° C. Each well on the plate was set up with 600 L3/L4-stage N2 animals in NGM with a 1:20 dilution of concentrated HB101 E. coli (food source) in a volume of 300 μl. Before the animal/HB101 solution was added, test compounds were pipetted into wells. For DMSO controls and compound stocks/dilutions in DMSO (LC) 3 μl was added to each well (1:100 dilutions). No OD620 measurements were taken but the animals were visually scored after 19 h incubation).
One 24 well microtiter plate was set up and incubated overnight on the shaker at 20° C. Each well on the plate was set up with 600 L3/L4-stage N2 animals in NGM with a 1:20 dilution of concentrated HB101 E. coli (food source) in a volume of 300 μl. Before the animal/HB101 solution was added, test compounds were pipetted into wells. For DMSO controls and compound stocks/dilutions in DMSO (LC) 3 μl was added to each well (1:100 dilutions). No OD620 measurements were taken but the animals were visually scored after 22 h incubation).

For series [2], the system named is C. elegans. Description: Thermal avoidance (TAV) 3 step dose response testing. Conditions: for effects indicating increased sensory sensitivity: 0%, 6%, 12% laser intensity.
Excerpt: The present invention includes a series of compounds that may be useful for increasing sensory neuron function in certain human neuropathological conditions. C. elegans contains a number of sensory neurons which are responsible for detecting a variety of external stimuli. One such stimulus (heat) can be detected and quantified in C. elegans by the use of thermal avoidance (TAV) technology available through NemaRx. The goal of this experiment was to provide an initial characterization of the compounds via TAV. Specifically, it was asked whether any of these compounds can lead to an increase in the thermal stimulus-induced behavioral response measured by TAV. N2 strain C. elegans animals were used for this project, which have ‘normal’, i.e. wildtype, sensory neuron function. Four compounds were received by NemaRx for TAV testing. These compounds were:
as §1
Dose Responses—setup: All of the wells from the 24 well plate were used for dose response testing and the entire well contents (600 animals) were used for each test. Prior to being placed on the agar plate for TAV testing each sample was processed as follows: • sample were transferred to glass tube containing 7 ml PBS • animals were allowed to settle for 5 minutes before most of the supernatant was removed (approx. 0.5 ml remaining in tube) • 7 ml PBS was then added, mixed and animals were allowed to settle for 5 minutes most of the supernatant was then removed • animals were removed and transferred to TAV testing plate (NRx Application pattern A) • plate was allowed to dry for 10 minutes (plate cover removed) and TAV testing was initiated. Per plate settings for the dose response experiments were as follows:
Dose Responses—general notes on analysis: A response of the animals to a thermal stimulus (laser) which is applied to the head region can be detected both by a change in the direction of movement, as well as by a change in speed occurring within the test interval where the stimulus is applied. • direction of movement. […] Animals that show a strong change in the direction of movement, i.e. reversals, are classified as LR5 responders. […] LR5 responders show a thermal intensity-dependent increase in the speed of movement (starting off with less than <prelaser speed at low intensities up to > pre-laser speed at high intensities)
The dose response experiments for the current project were carried out with 0% (background control), 6% and 12% settings of laser intensity. In practice, 6% is on the edge of laser intensity required to detect an increase in the number of LR5 responders. As such, 6% should be a useful intensity-setting to detect compound-induced increased sensitivity in the animals. The 12% setting was chosen because this intensity typically gives a robust increase in the number of LR5 responders.
Total Responder speeds, ‘LR1 Responder speeds’ and ‘LR5 Responder speeds’ are shown as normalized speeds to allow better comparison between samples. For normalization purposes the average pre-laser speed is set at 1.0 and responder speeds are calculated relative to this value.
One 24 well microtiter plate was set up and incubated overnight on the shaker at 20° C. Each well on the plate was set up with 600 L3/L4-stage N2 animals in NGM with a 1:20 dilution of concentrated HB101 E. coli (food source) in a volume of 300 μl. […]

The subject of series [3] is C. elegans. The series can be described thus: Thermal avoidance (TAV) single intensity testing (6% laser intensity). As for the experimental part:
One 24 well microtiter plate was set up and incubated overnight on the shaker at 20° C. Each well on the plate was set up with 600 L3/L4-stage N2 animals in NGM with a 1:20 dilution of concentrated HB101 E. coli (food source) in a volume of 300 μl. Before the animal/HB101 solution was added, test compounds were pipetted into wells. 3 μl each for the DMSO controls and LA dilutions were added to each well (1:100 dilutions). Controls and LA dilutions were done in triplicate (total of 9 wells).
6% Response tests—setup: All 9 wells from the 24 well plate were used for 6% testing and the entire well contents (600 animals) were used for each test. Prior to being placed on the agar plate for TAV testing each sample was processed as described for ‘Dose Responses’.
Dose Responses—general notes on analysis: Analysis similar as described in ‘Dose Responses’. In addition, ‘Response ratios’ as well as ‘A Speed responses’ both give measures of how much individual animals changed speed in response to the stimulus (additional information available upon request).
One 24 well microtiter plate was set up and incubated overnight on the shaker at 20° C. Each well on the plate was set up with 600 L3/L4-stage N2 animals in NGM with a 1:20 dilution of concentrated HB101 E. coli (food source) in a volume of 300 μl. Before the animal/HB101 solution was added, test compounds were pipetted into wells. 6 μl each for the water controls and compound dilutions were added to each well (1:50 dilutions). Controls and compound dilutions were done in triplicate (total of 15 wells).
6% Response tests—setup: All 15 wells from the 24 well plate were used for 6% testing) and the entire well contents (600 animals) were used for each test. Prior to being placed on the agar plate for TAV testing each sample was processed as described for ‘Dose Responses’.
One 24 well microtiter plate was set up and incubated overnight on the shaker at 20° C. Each well on the plate was set up with 600 L3/L4-stage N2 animals in NGM with a 1:20 dilution of concentrated HB101 E. coli (food source) in a volume of 300 μl. Before the animal/HB101 solution was added, test compounds were pipetted into wells. 3 μl each for the DMSO controls and LC dilutions were added to each well (1:100 dilutions). Controls and LC dilutions were done in triplicate (total of 9 wells).

Where [4] appears, read: even at highest concentration 2 mM (LC).

`O=C(O)CCCCC1CCSS1` (centres unmarked) [LA, Lipoic acid]: the “visual scoring of well clearance” value was “most bacteria remaining” in series [1] (LA1, 10 mM final concentration in well, 19 h incubation) and “some bacteria remaining” in series [1] (LA2, 5 mM final concentration in well, 19 h incubation). The “effects indicating increased sensory sensitivity” value is on record as “No obvious effects detected” in series [2] (even at highest non-toxic concentration of 2 mM) and “No effects detected” in series [3] (2 mM or 1 mM). Further, the “speed of LR1 responders” value in series [2] (LA3 dilution) is on record as “relatively low”. The “percentage of LR5 responders” value in series [2] (dilutions LA4, LA5 and LA6, similar to the last DMSO control) is on record as “relatively high”. The “toxicity evident from 'Frames viewed' and 'Average Speeds'” value in series [2] (two highest LA concentrations (LA1, LA2)) is given as “toxicity is observed”.
With “Acetyl-L-Carnitine-Lipoic acid conjugate [LC Conjugate]”, the “visual scoring (toxicity)” value in series [1] (LC, 22 h incubation) is on record as “no toxicity observed”; in series [1] (all LC dilutions LC1-LC6 (up to 2 mM), 19 h incubation) it was “no toxicity observed”. The “effects indicating increased sensory sensitivity” value in series [2] (setting [4]) and in series [3] (setting [4]) was “No obvious effects detected” in each case.
